Measurements from patent US9187524B2, “Broad spectrum antibiotic arylomycin analogs” (The Scripps Research Institute, priority 2010, dated 2015).
In brackets after ≈: the same amount, converted by molar mass. Like-named read-outs stand apart in the source and are kept apart here.

What was measured:
[1] = system: wild type S. epidermidis RP62A; experiment: microbe, parasite or virus in culture; type: cell-based, Staphylococcus epidermidis; conditions: for MIC: Staphylococcus epidermidis, read-out: MIC, S. epidermidis
[2] = system: lepB(P29S) S. aureus 8325; experiment: microbe, parasite or virus in culture; type: cell-based, Staphylococcus aureus; conditions: for MIC: Staphylococcus aureus, read-out: MIC, S. aureus P29S
[3] = system: lepB(P84L) E. coli MG1655; experiment: microbe, parasite or virus in culture; type: cell-based, Escherichia coli; conditions: for MIC: Escherichia coli, MG1655, read-out: MIC, E. coli P84L
[4] = system: lepB(P84L) P. aeruginosa PAO1; experiment: microbe, parasite or virus in culture; type: cell-based, Pseudomonas aeruginosa; conditions: for MIC: Pseudomonas aeruginosa, PAO1, read-out: MIC, P. aeruginosa P84L
wild type E. coli MG1655 = experiment: microbe, parasite or virus in culture; type: cell-based, Escherichia coli; conditions: for MIC: Escherichia coli, MG1655, read-out: MIC, E. coli
B. brevis = experiment: microbe, parasite or virus in culture; type: cell-based, Brevibacillus brevis; conditions: for MIC: Brevibacillus brevis, Table 4, read-out: MIC, B. brevis
[5] = system: spsB(S29P) S. epidermidis RP62A; experiment: microbe, parasite or virus in culture; type: cell-based, Staphylococcus epidermidis
wild type S. aureus 8325 = experiment: microbe, parasite or virus in culture; type: cell-based, Staphylococcus aureus
[6] = system: wild type P. aeruginosa PAO1; experiment: microbe, parasite or virus in culture; type: cell-based, Pseudomonas aeruginosa
[7] = system: S. epidermidis ATCC 35984; experiment: MIC; type: cell-based; conditions: Table 1
R. equi = experiment: microbe, parasite or virus in culture; type: cell-based; conditions: Rhodococcus (subgen. Prescottella) equi; Table 4
R. opacus = experiment: microbe, parasite or virus in culture; type: cell-based; conditions: Rhodococcus opacus; Table 4; read-out: MIC, R. opacus
S. agalactiae = experiment: microbe, parasite or virus in culture; type: cell-based, Streptococcus agalactiae
S. pyogenes = experiment: microbe, parasite or virus in culture; type: cell-based, Streptococcus pyogenes
S. pneumoniae = experiment: microbe, parasite or virus in culture; type: cell-based, Streptococcus pneumoniae
C. efficiens = experiment: microbe, parasite or virus in culture; type: cell-based; conditions: Corynebacterium efficiens, Table 4; read-out: MIC, C. efficiens
C. glutamicum = experiment: microbe, parasite or virus in culture; type: cell-based, Corynebacterium glutamicum; conditions: Corynebacterium glutamicum; Table 4; read-out: MIC, C. glutamicum
L. lactis = experiment: microbe, parasite or virus in culture; type: cell-based, Lactococcus lactis; conditions: Lactococcus lactis, Table 4

## CCCCCCCCCCCCCCCC(=O)N(C)C(CO)C(=O)NC(C)C(=O)NCC(=O)N(C)C1C(=O)NC(CC(F)(F)F)C(=O)NC(C(=O)O)Cc2ccc(O)c(c2)-c2cc1ccc2O (stereo not shown) [Compound 33]
[1]
  fold loss of activity against S. epidermidis relative to arylomycin C16: 32 fold
[2]
  fold loss of activity against sensitized S. aureus relative to arylomycin C16: at least 16 fold
[3]
  fold loss of activity against sensitized E. coli relative to arylomycin C16: 8 fold
[4]
  fold loss of activity against sensitized P. aeruginosa relative to arylomycin C16: at least 16 fold

## CCCCCCCCCCCCCCCC(=O)N(C)[C@H](CO)C(=O)N[C@H](C)C(=O)NCC(=O)N(C)[C@@H]1C(=O)N[C@@H](C)C(=O)N[C@H](C(=O)O)Cc2cc(N)c(O)c(c2)-c2cc1ccc2O [Compound 36]
[1]
  MIC: 8 µg/mL (≈ 8.93 µM)
[1]; sensitive (wild type) strain
  fold loss of activity against S. epidermidis relative to arylomycin C16: 32 fold
[2]
  fold loss of activity against sensitized S. aureus relative to arylomycin C16: 32 fold
  MIC: 64 µg/mL (≈ 71.4 µM)
[3]
  fold loss of activity against sensitized E. coli relative to arylomycin C16: 8 fold
  MIC: 16 µg/mL (≈ 17.9 µM)
[4]
  fold loss of activity against sensitized P. aeruginosa relative to arylomycin C16: 8 fold
  MIC: 32 µg/mL (≈ 35.7 µM)
Wild type E. coli MG1655
  MIC: > 64 µg/mL
B. brevis
  MIC: > 64 µg/mL

## CCCCCCCCCCCCCCCC(=O)N1CC(O)CC1C(=O)NC(C)C(=O)NCC(=O)N(C)C1C(=O)NC(C)C(=O)NC(C(=O)O)Cc2ccc(O)c(c2)-c2cc1ccc2O (stereo not shown) [Compound 19]
[1]
  MIC, Sensitive Se: 4 µg/mL (≈ 4.48 µM)
[2]
  MIC, Sensitive Sa: 4 µg/mL (≈ 4.48 µM)
[3]
  MIC, Sensitive Ec: >64 µg/mL
[4]
  MIC, Sensitive Pa: >64 µg/mL
[5]
  MIC, Resistant Se: 8 µg/mL (≈ 8.96 µM)
Wild type S. aureus 8325
  MIC, Resistant Sa: >64 µg/mL
Wild type E. coli MG1655
  MIC, Resistant Ec: >64 µg/mL
[6]
  MIC, Resistant Pa: >64 µg/mL

## Arylomycin A2 [reference compound]
Wild type S. aureus 8325; Table 1
  MIC, S. aureus 8325: >128 µM
Wild type E. coli MG1655; Table 1
  MIC, E. coli MG1655: >128 µM
[7]
  MIC, S. epidermidis ATCC 35984: 1 µM

## CCCCCCCCCCCCCCCC(=O)N(C)[C@H](CO)C(=O)N(C)[C@H](C)C(=O)NCC(=O)N(C)[C@@H]1C(=O)N[C@@H](C)C(=O)N[C@H](C(=O)O)Cc2ccc(O)c(c2)-c2cc1ccc2O [Compound 18]
[1]
  MIC, Sensitive Se: >64 µg/mL
[2]
  MIC, Sensitive Sa: >64 µg/mL
[3]
  MIC, Sensitive Ec: >64 µg/mL
[4]
  MIC, Sensitive Pa: >64 µg/mL
[5]
  MIC, Resistant Se: >64 µg/mL
Wild type S. aureus 8325
  MIC, Resistant Sa: >64 µg/mL
Wild type E. coli MG1655
  MIC, Resistant Ec: >64 µg/mL
[6]
  MIC, Resistant Pa: >64 µg/mL

## CCCCCCCCCCCCCCCC(=O)N(C)C(CO)C(=O)NC(C)C(=O)NCC(=O)N(C)C1C(=O)NC(C(C)C)C(=O)NC(C(=O)O)Cc2ccc(O)c(c2)-c2cc1ccc2O (stereo not shown) [Compound 34]
[4]
  fold loss of activity against sensitized P. aeruginosa relative to arylomycin C16: 4 fold

## CCCCCCCCCCCCCCCC(=O)N(C)C(CO)C(=O)NC(C)C(=O)NCC(=O)N(C)C1C(=O)NC(CC(C)C)C(=O)NC(C(=O)O)Cc2ccc(O)c(c2)-c2cc1ccc2O (stereo not shown) [Compound 35]
[4]
  fold loss of activity against sensitized P. aeruginosa relative to arylomycin C16: > 16 fold

## CCCCCCCCCCCCCCCC(=O)N(C)[C@H](CO)C(=O)N[C@H](C)C(=O)NCC(=O)N(C)[C@@H]1C(=O)NC(C)C(=O)N[C@H](C(=O)O)Cc2cc(c(O)c([N+](=O)[O-])c2)-c2cc1ccc2O (stereo partly shown) [Arylomycin B-C16]
[1]
  MIC: 0.13 µg/mL (≈ 0.14 µM)
[2]
  MIC: 8 µg/mL (≈ 8.64 µM)
[3]
  MIC: 2 µg/mL (≈ 2.16 µM)
[4]
  MIC: 4 µg/mL (≈ 4.32 µM)
Wild type E. coli MG1655
  MIC: > 64 µg/mL
B. brevis
  MIC: > 64 µg/mL
B. brevis; MHBII broth and nutrient broth
  activity against B. brevis: no activity
R. equi
  MIC: 32 µg/mL (≈ 34.6 µM)
R. opacus
  MIC: 4 µg/mL (≈ 4.32 µM)
S. agalactiae
  fold more activity against Streptococcus agalactiae than arylomycin C16: greater than 16 fold
S. agalactiae; Streptococcus agalactiae, Table 4, read-out: MIC, S. agalactiae
  MIC: 8 µg/mL (≈ 8.64 µM)
S. agalactiae; Table 14
  MIC, S. agalactiae: 8 µg/mL (≈ 8.64 µM)
S. pyogenes; Streptococcus pyogenes, Table 4, read-out: MIC, S. pyogenes
  MIC: 4 µg/mL (≈ 4.32 µM)
S. pyogenes; Table 14
  MIC, S. pyogenes: 4 µg/mL (≈ 4.32 µM)
S. pneumoniae; Streptococcus pneumoniae, Table 4, read-out: MIC, S. pneumoniae
  MIC: 16 µg/mL (≈ 17.3 µM)
S. pneumoniae; Table 14
  MIC, S. pneumoniae: 16 µg/mL (≈ 17.3 µM)
C. efficiens
  MIC: 16 µg/mL (≈ 17.3 µM)
C. glutamicum
  MIC: 2 µg/mL (≈ 2.16 µM)
L. lactis
  MIC: 32 µg/mL (≈ 34.6 µM)

## CCCCCCCCCCCCCCCC(=O)N(C)C(CO)C(=O)NC(C)C(=O)NCC(=O)N(C)C1C(=O)NC(CCCCC)C(=O)NC(C(=O)O)Cc2ccc(O)c(c2)-c2cc1ccc2O (stereo not shown) [Compound 30]
[2]
  fold loss of activity against sensitized S. aureus relative to arylomycin C16: 32 fold

## CCCCCCCCCCCCCCCC(=O)N(C)C(CO)CCC(=O)NC(C)C(=O)NCC(=O)N(C)C1C(=O)NC(C)C(=O)NC(C(=O)O)Cc2ccc(O)c(c2)-c2cc1ccc2O (stereo not shown) [Compound 24]
[1]
  MIC, Sensitive Se: 8 µg/mL (≈ 8.8 µM)
[2]
  MIC, Sensitive Sa: 4 µg/mL (≈ 4.4 µM)
[3]
  MIC, Sensitive Ec: >64 µg/mL
[4]
  MIC, Sensitive Pa: >64 µg/mL
[5]
  MIC, Resistant Se: 16 µg/mL (≈ 17.6 µM)
Wild type S. aureus 8325
  MIC, Resistant Sa: 16 µg/mL (≈ 17.6 µM)
Wild type E. coli MG1655
  MIC, Resistant Ec: >64 µg/mL
[6]
  MIC, Resistant Pa: >64 µg/mL

## CCCCCCCCCCCCCCCC(=O)N(C)C(CO)C(=O)NC(C)C(=O)NCC(=O)N(C)C1C(=O)NC(CCCC)C(=O)NC(C(=O)O)Cc2ccc(O)c(c2)-c2cc1ccc2O (stereo not shown) [Compound 29]
[2]
  fold loss of activity against sensitized S. aureus relative to arylomycin C16: 32 fold

## CCCCCCCCCCCCCCCC(=O)N[C@H](CO)C(=O)N[C@H](C)C(=O)NCC(=O)N(C)[C@@H]1C(=O)N[C@@H](C)C(=O)N[C@H](C(=O)O)Cc2ccc(O)c(c2)-c2cc1ccc2O [Compound 17]
[1]
  MIC, Sensitive Se: 1 µg/mL (≈ 1.15 µM)
[2]
  MIC, Sensitive Sa: 16 µg/mL (≈ 18.5 µM)
[3]
  MIC, Sensitive Ec: 4 µg/mL (≈ 4.61 µM)
[4]
  MIC, Sensitive Pa: >64 µg/mL
[5]
  MIC, Resistant Se: 32 µg/mL (≈ 36.9 µM)
Wild type S. aureus 8325
  MIC, Resistant Sa: >64 µg/mL
Wild type E. coli MG1655
  MIC, Resistant Ec: >64 µg/mL
[6]
  MIC, Resistant Pa: >64 µg/mL

## CCCCCCCCCCCCCCCC(=O)N(C)[C@H](CO)C(=O)N[C@H](C)C(=O)NCC(=O)N(C)[C@@H]1C(=O)NCC(=O)N[C@H](C(=O)O)Cc2ccc(O)c(c2)-c2cc1ccc2O [Compound 26]
[1]
  fold loss of activity against S. epidermidis relative to arylomycin C16: 32 fold
[2]
  fold loss of activity against sensitized S. aureus relative to arylomycin C16: > 16 fold
[3]
  fold loss of activity against sensitized E. coli relative to arylomycin C16: 32 fold
[4]
  fold loss of activity against sensitized P. aeruginosa relative to arylomycin C16: > 16 fold
